Assay results: US5326566A, “Use of dibutyl adipate and isopropyl myristate in topical and transdermal products” (Bristol-Myers Squibb Company, priority 1993, dated 1994)
Where two headings read alike, the source gives them in different places.

What was measured:
[1] = literature (Martindale) for dimethyl sulfoxide; cited from earlier work
[2] = Description: Only skin that appeared normal was used.
Halobetasol propionate is commercially available by Bristol-Myers Squibb as ULTRAVATE® Cream and ULTRAVATE® Ointment. ULTRAVATE® Cream is an oil-in-water emulsion containing isopropyl palmitate and isopropyl isostearate as emollients. The ULTRAVATE® Ointment is a nonaqueous emulsion of propylene glycol in a petrolatum base.
In a different human skin study, the in vitro skin penetration of halobetasol propionate from ULTRAVATE® Ointment, FN8-1114-16 cream and FN8-1114-13 cream, was evaluated (see Table 3, Study II). ULTRAVATE® Ointment was used as a control in order to normalize the data, and to assist in the comparison of skin penetration of different formulations when evaluated for skin penetration in different human skin.

[3] = applied topically; more pronounced in occluded condition; cited from earlier work
[4] = prior art skin permeation enhancers; cited from earlier work
[5] = test system: utriculi of rhino mouse skin; assay: Rhino mouse utriculi model (efficacy of tretinoin formulations, reduction of utriculi diameter); assay type: in vivo; conditions: topical, once a day for five days, FIG. 4
Description: Female rhino mice were obtained from the Skin and Cancer Hospital, Temple University, Philadelphia, Pennsylvania. Upon receipt, the rhino mice were treated with an anti-parasitic agent, trichlorfon (COMBOT®), to rid them of pinworms. It was administered in their drinking water for two weeks. An additional two weeks was allowed to pass without COMBOT® treatment before mice were placed on study. Animals were housed in accordance with the National Institute of Health guidelines and had free access to food and water. At the time of the study initiation, the mice were 9-14 weeks old.
The mice were individually housed in a plastic shoe box cage with corn cob bedding and placed in rooms illuminated with yellow lights, cycled for 12 hours on and 12 hours off during the study. […]
The sheets were then evaluated for changes in the sizes of the utriculi as follows: The maximum diameter of 20 representative utriculi per tissue sample were measured, using an IBM PC computer image measurement program (Microscience, Inc., Federal Way, Washington D.C.) and an Olympus microscope (200×magnification). Retinoid effects were evaluated as a percent reduction in uterine diameter by comparing mean diameter of the vehicle treated groups to that of formulation treated groups.

[6] = Saturation / degree of unsaturation of the oil phase; assay type: physicochemical; conditions: 0.5 wt % DBA and 10 wt % IPM as solvents in the oil phase
Excerpt: A degree of unsaturation of 1.5 means that the amount of DBA, or DBA and IPM, present in the oil phase is one and a half times the amount required to dissolve the halobetasol propionate in the oil phase of the composition so that the final oil phase of the composition is saturated with respect to the halobetasol propionate, plus contains a 50% excess of such solvent(s).
An unsaturation value of 1.5 means the oil phase of the final composition contains more of the solvent system of the present invention than the minimum required to make such oil phase saturated, saturation of course being relative to the halobetasol propionate. The 1.5 unsaturation value indicates the oil phase of the final composition contains 11/2 times the amount of solvent system required to produce a final composition the oil phase of which is saturated with respect to halobetasol propionate (in other words, the oil phase of the final composition contains a 50% surplus of the solvent system of the invention).

SMILES: CN(C)C=O [Dimethyl formamide, dimethyl formamide]
- side effects, in words [1]: cause a sensation of burning and erythema on the skin

SMILES: CC(O)CO (stereo not drawn) [PG, propylene glycol]
- skin penetration enhancement of halobetasol propionate by solvent/enhancer, in words [2]: does not improve the skin penetration of halobetasol propionate any further
- irritation/sensitization, in words [3]: can be a sensitizer and irritant when applied topically

SMILES: CCCCCCCCCC[S+](C)[O-] (stereo not drawn) [decyl methyl sulfoxide]
- skin permeation of oil-soluble drugs, in words [4]: generally do not increase skin permeation of oil-soluble drugs

SMILES: CCCCOC(=O)CCCCC(=O)OCCCC [dibutyl adipate]
- efficacy of tretinoin formulations (rank order / activity in words) [5]: increases the efficacy and hence the topical bioavailability of tretinoin

SMILES: C[S+](C)[O-] [dimethyl sulfoxide]
- side effects, in words [1]: causes in animals a foul taste and body odor, burning and erythema on the skin, a reduction in the relucency of the lens cortex and tissue necrosis

SMILES: CCC(=O)O[C@]1(C(=O)CCl)[C@@H](C)C[C@H]2[C@@H]3C[C@H](F)C4=CC(=O)C=C[C@]4(C)[C@@]3(F)[C@@H](O)C[C@@]21C [halobetasol propionate]
- saturated solution of halobetasol propionate in the oil phase [6]: 0.05 wt %

SMILES: CC(C)CCCCCCCCCCCCCCC(=O)OC(C)C [isopropyl isostearate]
- skin penetration enhancement of halobetasol propionate by solvent/enhancer, in words [2]: did not enhance the penetration of halobetasol propionate from ULTRAVATE® Cream as compared to ULTRAVATE® Ointment

SMILES: CCCCCCCCCCCCCCCC(=O)OC(C)C [isopropyl palmitate]
- skin penetration enhancement of halobetasol propionate by solvent/enhancer, in words ([2]; conclusions from Study I and Study II): did not enhance the penetration of halobetasol propionate from ULTRAVATE® Cream as compared to ULTRAVATE® Ointment
